IC50 and EC50 data for 22 molecules are collected here from patent publication US7932262B2 (Novartis AG, priority 2006, dated 2011).

Each structure is given as a SMILES string. Where two headings read alike, the source gives them in different places.

In assay [1] the target is T1, PDK1 kinase (Homo sapiens, UniProt O15530).
T1 sequence (O15530 1-556): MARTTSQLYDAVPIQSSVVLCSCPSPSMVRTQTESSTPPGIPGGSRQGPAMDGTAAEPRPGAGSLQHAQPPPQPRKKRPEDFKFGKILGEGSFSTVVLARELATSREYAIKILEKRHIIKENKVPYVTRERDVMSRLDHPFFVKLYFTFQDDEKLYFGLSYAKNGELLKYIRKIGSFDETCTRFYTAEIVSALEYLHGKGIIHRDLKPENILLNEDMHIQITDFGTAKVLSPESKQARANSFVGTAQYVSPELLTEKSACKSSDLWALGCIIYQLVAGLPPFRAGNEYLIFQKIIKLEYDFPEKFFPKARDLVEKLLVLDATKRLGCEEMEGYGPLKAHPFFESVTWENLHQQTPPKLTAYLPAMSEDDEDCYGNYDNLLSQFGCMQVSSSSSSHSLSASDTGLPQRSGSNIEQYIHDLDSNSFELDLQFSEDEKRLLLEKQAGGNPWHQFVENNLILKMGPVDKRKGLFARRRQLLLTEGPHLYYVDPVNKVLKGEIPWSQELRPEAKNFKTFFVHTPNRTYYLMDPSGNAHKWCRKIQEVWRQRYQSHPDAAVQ
Kind of assay: PDK1 Kinase Alpha Screen Assay. The format is biochemical. A digest of the protocol: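 Test compounds were incubated with PDK1 kinase, 10 uM ATP and 50 nM biotinylated peptide substrate for 3-18 hours at pH 7.5 with 2.5% DMSO. Peptide phosphorylation was then detected by AlphaScreen proximity luminescence using a phospho-(Ser/Thr) PKA substrate antibody.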

In assay [2] the test system is PC3MM cells. Kind of assay: Cell Proliferation Assay (Cell Titer Glo), PC3MM. The class given is cell-based. As to conditions: read-out: CPEC50 PC3MM. Here is the method:
IV. Cell Proliferation Assay Protocol:
A2780, PC-3, or PC3MM cells were seeded at 1000 cells/well in 100 μL/well (10.000 cells/mL) growth media in 96-well plates. Cells were allowed to adhere to the bottom of plates for 3-5 hours in a 37° C. 5% CO2 incubator. Compounds were dissolved in DMSO and then transferred to the cell plates. The cells were incubated with the compounds for 3 days in a 37° C. 5% CO2 incubator. The growth medium containing the compounds was then removed from the cells and fresh medium was added, followed by 100 μL of Cell Titer Glo assay reagent (Promega). This mixture was shaken for 1 minute and then incubated without shaking for 10 minutes. Activity determinations for the compounds were made by detection on a Trilux Instrument.
(In general: In ATP-based viability assays light output follows the ATP content of the culture.)

Assay [3] relates to A2780 cells. Description: Cell Proliferation Assay (Cell Titer Glo), A2780. The format is cell-based. As to conditions: Homo sapiens, read-out: CPEC50 A2780. A digest of the protocol:
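Cells seeded at 1000/well, allowed to adhere 3-5 h, then exposed to DMSO-dissolved compounds for 3 days at 37° C., 5% CO2. Medium replaced before Cell Titer Glo addition; luminescence read after 10 min.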

The mark [4] stands for this setting: PDK1 Kinase Alpha Screen Assay, read-out: PDK1 IC50.
[5] abbreviates: Cell Proliferation Assay, PC3MM.
[6] abbreviates: Cell Proliferation Assay, A2780.
The mark [7] stands for this setting: Cell Proliferation Assay, PC3MM cells.
Where [8] appears, read: cell proliferation, PC3MM cells.
[9] abbreviates: cell proliferation, A2780 cells.

Take `c1cc(N2CCOCC2)ccc1Nc1ncc2cc(-c3cnoc3)c(OC3CCNCC3)cc2n1` [Compound 652, 6-(isoxazol-4-yl)-N-(4-morpholinophenyl)-7-(piperidin-4-yloxy)quinazolin-2-amine]: the IC50 in assay [1] (setting [4]) was less than 5 µM. Further, the EC50 in assay [2] (setting [5]) and in assay [3] (setting [6]) was less than 5 µM throughout.
As to `CN1CCC(Oc2cc3nc(Nc4ccc(N5CCOCC5)cc4)ncc3cc2-c2nccs2)CC1` [Compound 653, 7-(1-methylpiperidin-4-yloxy)-N-(4-morpholinophenyl)-6-(thiazol-2-yl)quinazolin-2-amine], the IC50 in assay [1] (setting [4]) was less than 5 µM. Also, the EC50 in assay [2] (setting [5]) and in assay [3] (setting [6]) was less than 5 µM throughout.
For `CN1CCC(Oc2cc3nc(Nc4cc(C(N)=O)cc(N5CCOCC5)c4)ncc3cc2-c2nccs2)CC1` [Compound 678, 3-(7-(1-methylpiperidin-4-yloxy)-6-(thiazol-2-yl)quinazolin-2-ylamino)-5-morpholinobenzamide], the IC50 in assay [1] (setting [4]) is less than 5 µM. Besides, in assay [2] (setting [5]), the EC50 was less than 5 µM.
Regarding `C#Cc1cc2cnc(Nc3cc(C(N)=O)cc(N4CCOCC4)c3)nc2cc1OC1CCNCC1` [Compound 679, 3-(6-ethynyl-7-(piperidin-4-yloxy)quinazolin-2-ylamino)-5-morpholinobenzamide], the IC50 in assay [1] (setting [4]) is less than 5 µM. For the same molecule, the EC50 in assay [2] (setting [5]) was 5 to 10 µM.
The corresponding values for `NC(=O)c1cc(Nc2ncc3cc(-c4cnoc4)c(OC4CCNCC4)cc3n2)cc(N2CCOCC2)c1` [Compound 680, 3-(6-(isoxazol-4-yl)-7-(piperidin-4-yloxy)quinazolin-2-ylamino)-5-morpholinobenzamide] are less than 5 µM and 5 to 10 µM.
In the same order, the values of `CN1CCC(Oc2cc3nc(Nc4ccc5nc(C(F)(F)F)[nH]c5c4)ncc3cc2-c2nccs2)CC1` [Compound 681, 7-(1-methylpiperidin-4-yloxy)-6-(thiazol-2-yl)-N-(2-(trifluoromethyl)-1H-benzo[d]imidazol-6-yl)quinazolin-2-amine] are less than 5 µM and 5 to 10 µM.
Turning to `COc1cc(Nc2ncc3cc(-c4nccs4)c(OC4CCNCC4)cc3n2)cc(-n2nnnc2C)c1` [Compound 682, N-(3-methoxy-5 (5-methyl-1H-tetrazol-1-yl)phenyl)-7-(piperidin-4-yloxy)-6-(thiazol-2-yl)quinazolin-2-amine], the IC50 in assay [1] (setting [4]) is less than 5 µM. In addition, the EC50 in assay [2] (setting [5]) was less than 5 µM.
For `CC(=O)N1CCC(Oc2cc3nc(Nc4ccc(N5CCOCC5)cc4)ncc3cc2-c2nccs2)CC1` [Compound 690, 1-(4-(2-(4-morpholinophenylamino)-6-(thiazol-2-yl)quinazolin-7-yloxy)piperidin-1-yl)ethanone], the IC50 in assay [1] (setting [4]) was less than 5 µM. Besides, in assay [2] (setting [5]), the EC50 is less than 5 µM.
For `COc1c(-c2cnn(CC(C)C)c2)ccc2cnc(Nc3cc(CN4CCOCC4)cc(NC(C)=O)c3)nc12` [Compound 715, N-(3-(7-(1-isobutyl-1H-pyrazol-4-yl)-8-methoxyquinazolin-2-ylamino)-5-(morpholinomethyl)phenyl)acetamide], the IC50 in assay [1] (setting [4]) was less than 5 µM. Moreover, the EC50 in assay [2] (setting [7]) is less than 5 µM.
In the case of `COC(=O)Nc1cc(CN2CCOCC2)cc(Nc2ncc3ccc(-c4cnn(CCC(C)C)c4)c(OC)c3n2)c1` [Compound 716, methyl 3-(7-(1-isopentyl-1H-pyrazol-4-yl)-8-methoxyquinazolin-2-ylamino)-5-(morpholinomethyl)phenyl carbamate], the IC50 in assay [1] (setting [4]) was less than 5 µM. Further, the EC50 in assay [2] (setting [7]) is less than 5 µM.
In the case of `NC(=O)c1ccc(Nc2ncc3cccc(OC4CCNCC4)c3n2)cc1` [Compound 717, 4-(8-(piperidin-4-yloxy)quinazolin-2-ylamino)benzamide], in assay [1] (setting [4]), the IC50 is less than 5 µM. In addition, the EC50 in assay [2] (setting [8]) and in assay [3] (setting [9]) was less than 5 µM in each case.
In the case of `NS(=O)(=O)c1ccc(Nc2ncc3cccc(O[C@H]4CCNC4)c3n2)cc1` [Compound 721, (S)-4-(8-(pyrrolidin-3-yloxy)quinazolin-2-ylamino)benzenesulfonamide], in assay [1] (setting [4]), the IC50 was less than 5 µM. Further, the EC50 in assay [2] (setting [8]) and in assay [3] (setting [9]) was less than 5 µM throughout.
Take `NS(=O)(=O)c1ccc(Nc2ncc3cccc(OC4CN5CCC4CC5)c3n2)cc1` (centres unmarked) [Compound 722, 4-(8-(quinuclidin-3-yloxy)quinazolin-2-ylamino)benzenesulfonamide]: the IC50 in assay [1] (setting [4]) was less than 5 µM. Also, the EC50 in assay [2] (setting [8]) and in assay [3] (setting [9]) was less than 5 µM throughout.
For the molecule `CN1CC[C@H](Oc2cccc3cnc(Nc4ccc(S(N)(=O)=O)cc4)nc23)C1` [Compound 723, (S)-4-(8-(1-methylpyrrolidin-3-yloxy)quinazolin-2-ylamino)benzenesulfonamide], in assay [1] (setting [4]), the IC50 was less than 5 µM. Also, the EC50 in assay [2] (setting [8]) and in assay [3] (setting [9]) was less than 5 µM throughout.
For the molecule `CN1CCC(Oc2cccc3cnc(Nc4ccc(S(N)(=O)=O)cc4)nc23)CC1` [Compound 724, 4-(8-(1-methylpiperidin-4-yloxy)quinazolin-2-ylamino)benzenesulfonamide], the IC50 in assay [1] (setting [4]) was less than 5 µM. Further, the EC50 in assay [2] (setting [8]) and in assay [3] (setting [9]) was less than 5 µM throughout.
As for `NS(=O)(=O)c1ccc(Nc2ncc3cccc(O[C@@H]4CCNC4)c3n2)cc1` [Compound 726, (R)-4-(8-(pyrrolidin-3-yloxy)quinazolin-2-ylamino)benzenesulfonamide], the IC50 in assay [1] (setting [4]) is less than 5 µM. Besides, the EC50 in assay [2] (setting [8]) and in assay [3] (setting [9]) was less than 5 µM in each case.
As for `CN1CC[C@@H](Oc2cccc3cnc(Nc4ccc(S(N)(=O)=O)cc4)nc23)C1` [Compound 727, (R)-4-(8-(1-methylpyrrolidin-3-yloxy)quinazolin-2-ylamino)benzenesulfonamide], the IC50 in assay [1] (setting [4]) is less than 5 µM. Further, the EC50 in assay [2] (setting [8]) and in assay [3] (setting [9]) was less than 5 µM each time.
As for `NC(=O)c1ccccc1-c1ccc2cnc(Nc3ccc(S(N)(=O)=O)cc3)nc2c1` [Compound 784, 2-(2-(4-sulfamoylphenylamino)quinazolin-7-yl)benzamide], the IC50 in assay [1] (setting [4]) was less than 5 µM. In assay [2] (setting [8]), the EC50 is less than 5 µM.
`CC(=O)Nc1cccc(-c2ccc3cnc(Nc4ccc(S(N)(=O)=O)cc4)nc3c2)c1` [Compound 785, N-(3-(2-(4-sulfamoylphenylamino)quinazolin-7-yl)phenyl)acetamide]: the IC50 in assay [1] (setting [4]) lay in the range of 5 to 10 µM. Further, the EC50 in assay [2] (setting [8]) was 5 to 10 µM.
On to `CS(=O)(=O)c1cccc(-c2ccc3cnc(Nc4ccc(S(N)(=O)=O)cc4)nc3c2)c1` [Compound 787, 4-(7-(3-(methylsulfonyl)phenyl)quinazolin-2-ylamino)benzenesulfonamide], for which, in assay [1] (setting [4]), the IC50 was less than 5 µM. Besides, the EC50 in assay [2] (setting [8]) is less than 5 µM.
Turning to `CS(=O)(=O)Nc1cccc(-c2ccc3cnc(Nc4ccc(S(N)(=O)=O)cc4)nc3c2)c1` [Compound 788, 4-(7-(3-(methylsulfonamido)phenyl)quinazolin-2-ylamino)benzenesulfonamide], the IC50 in assay [1] (setting [4]) fell in the range of 10 to 25 µM. Besides, the EC50 in assay [2] (setting [8]) lay within 10 to 25 µM.
On to `COC(=O)Nc1cc(CN2CCOCC2)cc(Nc2ncc3ccc(-c4cnn(CCC(C)C)c4)c(OC)c3n2)c1` [Compound 1042, methyl 3-(7-(1-isopentyl-1H-pyrazol-4-yl)-8-methoxyquinazolin-2-ylamino)-5-(morpholinomethyl)phenylcarbamate], for which the IC50 in assay [1] (head of the second part of Table 4: BV11261, read-out: PDK1 BV11261) is less than 5 µM. For the same molecule, in assay [2] (PC3MM cells), the EC50 was less than 5 µM.
